Where a name gives a salt, the structure may show the parent alone.
Columns and labels:
[1] = test system: erbB2 receptor on MCF-7 and MDA-MB-468 breast adenocarcinoma cells; experiment: Quantitation of cell surface erbB2 presentation; assay type: cell-based; conditions: for cell surface erbB2 presentation: compared with untreated controls (Example 2); for cell surface presentation of erbB2 receptor: Example 3
Description: (§1) Populations of adenocarcinoma cells were evaluated for distribution in G0/G1, S and G2/M phases of the cell cycle as well as for erbB2/neu presentation. Cells were dissociated from the culture plates using Versene (Gibco) and resuspended in calcium- and magnesium-free phosphate-buffered saline containing bovine serum albumin and sodium azide. Exactly 2×10^5 cells were stained with R-Phycoerythrin-conjugated-anti-HER-2/neu murine IgG (Cat. 340552, Becton Dickinson) in buffer containing 100 μg/mL mouse IgG (Cat. 15381, Sigma). Cells were fixed with FACSLyse (Cat. 92-002, Becton Dickinson) followed by a short post-fix with ethanol at −20° C. Cellular DNA was stained with DAPI (Cat. D1306, Molecular Probes) in buffer containing RNase A (Sigma).
Sample data were collected on a FACStar^PLUS® flow cytometer (Becton Dickinson) equipped with a 488 nm argon ion laser in position 1 and a 350 nm argon ion laser in position 2. For each cell analyzed, data was collected on signal pulses from linear forward scatter height and width, linear area and width of DAPI fluorescence for DNA, and logarithmic fluorescence height of the HER-2/neu antibody probe. The resulting listmode files were processed using Winlist 3D© software (Verity Software House, Topsham, Me.). […] The remaining cells were analyzed for cell cycle position by manual gating and HER-2/neu surface antigen density. Using the bead standard system described in Example 2, values of mean fluorescence intensity for HER-2/neu and other antigens were converted to values of “Antibodies Bound per Cell” (ABC) during analysis.
Cells were exposed to Gemzar (gemcitabine (GMZ), Lilly, Indianapolis, Ind.) for 24 hours. […] Following drug exposure, cells were washed and cultured for another 2-5 days prior to analysis for antigen presentation and cell cycle status, except for those treated with BB-94. Cells were dissociated from the culture plates using Versene (Gibco) and resuspended in calcium- and magnesium-free phosphatebuffered saline containing bovine serum albumin and sodium azide. Exactly 2×10^5 cells were stained as described in Example 1. Antigen presentation was quantified against calibrated bead standards calibrated by the vendor for murine IgG binding capacity (Quantum Simply Cellular Bead, Cat. QSC-100, Sigma); calibration beads were stained with R-phycoerythrin-conjugated anti-HER-2/neu murine IgG. Plots of fluorescence intensity against bead IgG binding capacity were constructed, and molecules of IgG bound per cell was read from the fluorescence intensity of the stained cells.
Cells were exposed to interferons continuously for 2-5 days. […] Exactly 2×10^5 cells were stained as described in Example 1, and antigen expression was quantified as described in Example 2.

[2] = test system: erbB2 receptor on NHBE and HMEC normal epithelial cells; experiment: Quantitation of cell surface erbB2 presentation on normal epithelial cells; assay type: cell-based, human; conditions: compared with untreated controls
Description: Cells were exposed to Gemzar (gemcitabine (GMZ), Lilly, Indianapolis, Ind.) or 5FU (Adrucil®, Pharmacia & Upjohn) for 24 hours. Cells were exposed to interferons continuously for 2-5 days. Following drug exposure, cells were washed and cultured for another 2-5 days prior to analysis for antigen presentation and cell cycle status, except for those treated with interferons. Cells were dissociated from the culture plates using a collagenase cocktail (1:1:1,Types I, II, and IV, 0.1% (wt/vol), Gibco) in calcium- and magnesium-free phosphate-buffered saline. Cells were stained and cytometric data was collected as described in Example 1, and antigen expression was quantified as described in Example 2.

[3] = test system: PC-3 prostatic adenocarcinoma cells; conditions: PC-3 cells; Navelbine 30 nM alone or with cisplatin; GW3622W94; human PBMC effectors 50:1; 6 hours
Description: Ep-CAM Antigen Expression and ADCC of Prostatic Adenocarcinoma in Culture. Biological Effectiveness in vitro as Measured by Antibody-dependent Cellular Cytotoxicity. […] Target cells were cultured overnight with 100 μCi Na2^51CrO4 (Amersham) in media, and then washed 3 times with RPMI-1640 containing 2 mM L-glutamine, 50 μg/mL gentamicin, and 10% heat-inactivated FBS. […] Spontaneous lysis wells (CPMspontaneous) received media (no effectors) and total lysis wells (CPMTotal) received Triton-X-100. Cultures were incubated for 6 hours at 37° C./5% CO2, then supernatants were harvested using Skatron filter frames (Skatron Instruments, Sterling Va.). Radioactivity was counted in a gamma counter and the percentage specific release, corrected for spontaneous lysis, was calculated.

[4] = test system: HT-29 colon adenocarcinoma tumors; experiment: Targeting of 177Lu-labelled antibody to Ep-CAM-positive HT-29 xenografts; assay type: in vivo, mouse
Description: Human colon adenocarcinoma (HT-29) tumors were initiated by subcutaneous implantation into female CD-1 nude mice (Charles River). When the tumors reached 200-300 mg, animals were divided into groups of five. […] A control group was dosed with 5-fluorouracil (5-FU) intraperitoneally at 20 mg/kg on days 1 and 5. […] Blood, spleen, liver, lung, kidney, femur, and tumor were harvested on days 1, 3 and 5 post-antibody-dose for direct gamma counting (Packard).

[5] = Navelbine tolerability in CD-1 nude mice; conditions: intravenous, days 1 and 5, CD-1 nude mice
Description: Human colon adenocarcinoma (HT-29) tumors were initiated by subcutaneous implantation into female CD-1 nude mice (Charles River). When the tumors reached 200-300 mg, animals were divided into groups of five. Navelbine was injected intravenously at a dosage of 28 mg/kg in vehicle (5% dextrose in distilled water) on days 1 and 5.

[6] = test system: Ep-CAM antigen on HT-29 colon adenocarcinoma cells; experiment: Internalization of lutetium-177-labeled GW1208W95 (anti-Ep-CAM); assay type: cell-based, human; conditions: HT-29 cells pretreated with drug; 37° C
Description: Internalization of Lutetium-177-labeled GW1208W95 (anti-Ep-CAM) by Human Colon Adenocarcinoma Cells. Colon adenocarcinoma cells (HT-29) were plated in 6-well plates and cultured. Subconfluent cells were exposed to cytotoxic drugs for up to 24 hours. Cells were washed and cultured for another 2-5 days. The plates were put on ice (0° C.) for minimum of 60 minutes and lutetium-177-labeled coupled to 6,6″-bis {N,N,N″,N″-tetra(carboxymethyl)aminomethyl)-4′-(3-bromoacetamido-4-methoxyphenyl-2,2′:6,2″-terpyridine) at 0.5-1.0 mCi/mg was added at a final concentration of 6.7 nM. Cells were incubated at 0° C. for 3.5 hr. Following incubation at 0° C., the cells were washed with 2.5 mL of ice-cold phosphate-buffered saline with human serum albumin (1%) (PBS-HSA). Then 2.5 mL pre-warmed media was added and the labeled cells were incubated at 37° C. At the indicated time points, cells were washed twice with 2.5 mL PBS-HSA. Cells were incubated for 5 minutes at room temperature with 2.5 mL 0.1 M NaCl in 0.05 M glycine (pH 2.8) to detemine labeled antibody bound to the target surface antigen. The incubation was repeated and counts pooled. Internalized counts were determined by solubilization of the cell layer with 1.0 mL of 1 N NaOH. Samples were counted using a Packard CliniGamma 5000. Data was normalized to cell count for each well.
Colon adenocarcinoma cells (HT-29) in culture were pretreated with chemotherapeutic agents as described previously for the evaluation of cell cycle and cell surface antigen quantitation. […] Cells were pulse-labeled with ^177Lu-GW1208W95 (6.7 nM @ 0.5-1.0 mCi/mg protein) for a minimum of 60 minutes at 0° C. on ice to inhibit surface antigen internalization. After washing away of excess radiolabeled antibody fresh media was added, and the cells were incubated at 37° C. for time indicated. Surface-bound antibody was eluted with isotonic buffer and both acid-labile (surface-bound) and acid-stable (internalized) radioactivity were quantitated.

[7] = test system: Ep-CAM antigen on HT-29 colon adenocarcinoma cells; experiment: Quantitation of cell surface Ep-CAM antigen with FITC-323/A3; assay type: cell-based, human; conditions: HT-29 cells after drug exposure, vs media control
Description: (§2) FIG. 7. Cell Cycle Analysis and Quantitation of Antigen Expression. Populations of adenocarcinoma cells were evaluated for distribution in G0/G1, S, and G2/M phases of the cell cycle as well as Ep-CAM presentation on the cell surface. […] Cells were exposed to 5-fluorouracil (5-FU) for 24 hours, and to the interferons continuously for 2-5 days. Cells were washed and cultured for another 2 days prior to analysis for antigen presentation except for cells exposed to interferons. Cells were lightly trypsinized and mechanically detached from the culture flasks and resuspended in calcium- and magnesium-free phosphate-buffered saline containing bovine serum albumin and sodium azide. Exactly 2×10^5 cells were stained with FITC-323/A3 murine IgG antibody or FITC-murine IgG (control). Cells were fixed with cold paraformaldehyde, then permeabilized for DNA staining with Tween-20. Cellular DNA was stained with a propidium iodide buffer containing RNAse A. Listmode data were acquired using Lysis II software on a FACScan flow cytometer (Becton Dickinson Immunocytometry Systems) equipped with a 488 nm laser. Cell cycle analysis was done using CellFit software for SOBR modeling of the histograms (where possible, otherwise manual estimations were employed) on Cell-Fit. Ep-CAM antigen presentation was quantitated by comparison of the mean fluorescence intensity of fluorescein-conjugated 323/A3 bound to cultured cells with the fluorescence intensity of calibrated microbead standards and evaluated separately using histogram analysis in WinList (Verity Software House). Standard curves of calibration bead concentration versus fluorescence intensity were constructed in SoftMax Pro (Molecular Devices, Inc.), and fluorescence intensity of stained cells was used to calculate the number of antigen molecules per cell for the population.
(§3) Adenocarcinoma cells (HT-29) were exposed to Navelbine or Taxol or combinations of drugs as indicated in FIG. 7 and the cells were evaluated for cell surface Ep-CAM presentation in addition to cell cycle distribution. […]

[8] = test system: HT-29 colon adenocarcinoma cells; experiment: Cell cycle analysis by flow cytometry (propidium iodide); assay type: cell-based, human; conditions: HT-29 cells; media control 6.3%
Description: as §2, §3

[9] = test system: erbB2 receptor on BT-474 breast and NCI H322 lung adenocarcinoma cells; experiment: Quantitation of cell surface erbB2 presentation, high erbB2 cell lines; assay type: cell-based; conditions: BT-474 and H322
Description: (§4) Cells were dissociated from the culture plates using Versene (Gibco) and resuspended in calcium- and magnesium-free phosphate-buffered saline containing bovine serum albumin and sodium azide. Exactly 2×10^5 cells were stained with R-Phycoerythrin-conjugated-anti-HER-2/neu murine IgG (Cat. 340552, Becton Dickinson) in buffer containing 100 μg/mL mouse IgG (Cat. 15381, Sigma). Cells were fixed with […]. 92-002, Becton Dickinson) followed by a short post-fix with ethanol at -20° C. Cellular DNA was stained with DAPI (Cat. D1306, Molecular Probes) in buffer containing RNase A (Sigma). […] For each cell analyzed, data was collected on signal pulses from linear forward scatter height and width, linear area and width of DAPI fluorescence for DNA, and logarithmic fluorescence height of the HER-2/neu antibody probe. […] The remaining cells were analyzed for cell cycle position by manual gating and HER-2/neu surface antigen density. Using the bead standard system described in Example 2, values of mean fluorescence intensity for HER-2/neu and other antigens were converted to values of “Antibodies Bound per Cell” (ABC) during analysis. […] Antigen presentation was quantified against calibrated bead standards calibrated by the vendor for murine IgG binding capacity (Quantum Simply Cellular Bead, Cat. QSC-100, Sigma); calibration beads were stained with R-phycoerythrin-conjugated anti-HER-2/neu murine IgG. […]

[10] = test system: BT-474 breast and NCI H322 lung adenocarcinoma cells; experiment: Cell cycle analysis by flow cytometry (DAPI), high erbB2 cell lines; assay type: cell-based; conditions: BT-474 and H322; BB-94 10 μM alone
Description: as §4

[11] = test system: SK-BR-3, MCF-7 and BT-474 breast adenocarcinoma cell lines; assay type: cell-based
Description: Cells were exposed to Gemzar (gemcitabine (GMZ), Lilly, Indianapolis, Ind.) for 24 hours. […] Cells were exposed to interferons continuously for 2-5 days.

[12] = test system: MCF-7 and MDA-MB-468 breast adenocarcinoma cells; experiment: Cell cycle analysis by flow cytometry (DAPI); assay type: cell-based; conditions: Example 3
Description: as §1, with “Cellular DNA was stained with DAPI (Cat. D1306, Molecular Probes) in buffer containing RNase A (Sigma).” left out
Sample data were collected on a FACStar^PLUS® flow cytometer (Becton Dickinson) equipped with a 488 nm argon ion laser in position 1 and a 350 nm argon ion laser in position 2. For each cell analyzed, data was collected on signal pulses from linear forward scatter height and width, linear area and width of DAPI fluorescence for DNA, and logarithmic fluorescence height of the HER-2/neu antibody probe. […] The remaining cells were analyzed for cell cycle position by manual gating and HER-2/neu surface antigen density. Using the bead standard system described in Example 2, values of mean fluorescence intensity for HER-2/neu and other antigens were converted to values of “Antibodies Bound per Cell” (ABC) during analysis. […]

## CCC1=C[C@@H]2CN(C1)Cc1c([nH]c3ccccc13)[C@@](C(=O)OC)(c1cc3c(cc1OC)N(C)[C@H]1[C@@](O)(C(=O)OC)[C@H](OC(C)=O)[C@]4(CC)C=CCN5CC[C@]31[C@@H]54)C2 (relative stereo) [Navelbine, 3′, 4′-didehydro-4′-deoxy-C′-norvincaleukoblastine [R-(R*,R*)-2,3-dihydroxybutanedioate (1:2)(salt)]]
[1]
  cell surface erbB2 presentation: significant increases
[2]
  cell surface erbB2 presentation: no significant increases
[3]
  ADCC lysis of antibody-coated tumor target cells after drug pre-treatment: improved
[4]; Navelbine 28 mg/kg i.v. days 1 and 5, HT-29 xenografts
  tumor regression: minimal tumor regression
[4]; Navelbine pretreatment 28 mg/kg i.v. days 1 and 5, relative to vehicle- or 5-FU-treated animals
  increase in tumor targeting of 177Lu-labelled antibody: 2 fold
[5]
  LD10: ~28 mg/kg
[6]
  internalization of the radiolabelled antibody 177Lu-GW1208W95: significantly inhibited internalization

## O=c1[nH]cc(F)c(=O)[nH]1 [5-FU, 5-fluorouracil]
[7]
  cell surface Ep-CAM expression: not significantly increased
[8]
  cells in S and G2/M phases combined: 7.9%
[6]
  internalization of the radiolabelled antibody 177Lu-GW1208W95: extensive internalization

## CNC(=O)[C@H](Cc1ccccc1)NC(=O)[C@H](CC(C)C)[C@H](CSc1cccs1)C(=O)NO [BB-94]
[9]
  cell surface erbB2 presentation: increase in erbB2 presentation
[10]
  cell cycle distribution: did not affect cell cycle distribution

## Nc1ccn([C@@H]2O[C@H](CO)[C@@H](O)C2(F)F)c(=O)n1 [Gemzar, gemcitabine]
[9]
  cell surface erbB2 presentation: significant increases
[11]
  toxicity to cell lines based on the 18 s values: toxic

## CC(=O)O[C@H]1C(=O)[C@@]2(C)[C@H]([C@H](OC(=O)c3ccccc3)[C@]3(O)C[C@H](OC(=O)[C@H](O)[C@@H](NC(=O)c4ccccc4)c4ccccc4)C(C)=C1C3(C)C)[C@]1(OC(C)=O)CO[C@@H]1C[C@@H]2O [Taxol, 5β, 20 epoxy-1,2α,4,7β,10β,13α-hexahydroxytax-11-en-9-one 4,10-diacetate 2-benzoate 13-ester with (2R, 3S)-N-benzoyl-3-phenylisoserine]
[1]
  cell surface erbB2 presentation: significant increases
[2]
  cell surface erbB2 presentation: no significant increases
[6]
  internalization of the radiolabelled antibody 177Lu-GW1208W95: significantly inhibited internalization

## interferon-alpha
[7]
  cell surface Ep-CAM expression: not significantly increased
[1]
  cell surface presentation of erbB2 receptor: not significantly increased
[8]
  cells in S and G2/M phases combined: 12%
[12]
  cell cycle distribution: not significantly different from media control cells

## interferon-gamma: interferon-gamma
[7]
  cell surface Ep-CAM expression: not significantly increased
[1]
  cell surface presentation of erbB2 receptor: not significantly increased
[8]
  cells in S and G2/M phases combined: 11.5%
[12]
  cell cycle distribution: not significantly different from media control cells

B1: interferon-gamma: interferon-gamma (protein, UniProt P01579 24-161, looked up)
Interferon gamma: QDPYVKEAENLKKYFNAGHSDVADNGTLFLGILKNWKEESDRKIMQSQIVSFYFKLFKNFKDDQSIQKSVETIKEDMNVKFFNSNKKKRDDFEKLTNYSVTDLNVQRKAIHELIQVMAELSPAAKTGKRKRSQMLFRG
[11]
  toxicity to cell lines based on the 18 s values: toxic
